From patent publication US9388126B2, “Sigma receptor ligands and methods of modulating cellular protein homeostasis using same” (Drexel University, priority 2012, dated 2016)

Key:
Type in all cases: cell-based, human
[1] = tested on: MDA-MB-468 (GFP-LC3) cells; assay: GFP-LC3 punctae (autophagosome formation) microscopy assay; conditions: for mean number of punctae per cell: 10 μM
Experimental: The human GFP-LC3 expression plasmid, pEGFP-LC3 (a gift from Drs. Grazia Ambrosini and Gary K. Schwartz, MSKCC), was stably transfected into MDA-MB-468 and selected with 0.5 mg/ml G418 sulfate. Stable populations were generated and compared to parental MDA-MB-468 for Sigma1 expression and autophagic and growth inhibitory response to Sigma ligands. GFP-LC3 translocation (punctae formation) was assessed by microscopy in MDA-MB-468 (GFP-LC3) stable cell populations. For microscopy-based experiments, cells were seeded onto Lab-Tek II glass chamber slides (Nalge Nunc International). […] Images of GFP-LC3 punctae were acquired with a Zeiss Axioplan 2 Imaging widefield microscope using Axiovision LE software. Punctae were counted using the spot quantitation program in the Fluoro-Chem software package (Alpha Innotech) and confirmed in parallel by manual counting. Autophagosome formation in MDAMB-468 (GFP-LC3) cells was quantitated as the mean number of GFP-LC3 punctae per GFP positive cell.
Initially, an established immunoblot-based assay to detect microtubule associated protein light chain 3 (LC3) lipidation was used to test for the activation of autophagy. […] Since transient transfections can produce spurious GFP-LC3 aggregates, stable GFP-LC3 transfected populations of MDA-MB-468 (GFP-LC3) were generated. […]

[2] = tested on: T-47D breast adenocarcinoma cells; assay: Cell size by flow cytometry (mean FSC-H, G1 phase); conditions: 10 μM, 24 hours; control 412±5
Experimental: FIG. 31A is a differential interference contrast (DIC) image of MDA-MB-468 breast adenocarcinoma cells treated for ˜20 hours with DMSO (drug vehicle control), 10 μM IPAG (antagonist) or 10 μM PRE084 (agonist). A twenty-micron bar is shown in each image. Data are presented as mean±SEM. FIG. 31B is a graph illustrating the finding that IPAG diminished the mean cell size (FSC-H) of MDA-MB-468 breast tumor cells in a time-responsive manner. The mean FSC-H of 370±5 at to decreased to 323±4 after 24 hours of IPAG treatment and to 267±2 after 48 hours of treatment. Two-tailed t-tests were performed to determine statistical significance. For IPAG treatment compared to control (DMSO) and Sigma agonists (SKF and PRE084), P=0.0002 at d1 and P=0.00013 at d2. Data were generated from three to five independent determinations for each time-point. Flow cytometry was used to measure mean cell size (mean FSC-H) of T-47D breast adenocarcinoma cells. FIG. 31C is a bar graph illustrating T-47D cells treated for 24 hours with 10 μM indicated Sigma ligand. IPAG and BD 1047 (Sigma1 antagonists) diminished cell size from a mean FSC-H of 412±5 for control (DMSO) cells versus 341±7 and 381±8 for IPAG and BD1047 treated cells, respectively. […] Data represent 5 independent determinations (*P<0.05, ***P<0.001). FIG. 31D is a bar graph illustrating how IPAG (antagonist) decreases cell size in a dose responsive manner. T-47D were treated for 24 h with 1 and 10 μM IPAG, and mean FSC-H was measured. FIG. 31E is a graph illustrating that T47D cell size decreases over time. T-47D cells were treated for a total of 48 hours with 10 μM of the indicated Sigma ligands. […] Neither Sigma1 agonist, (+)-SKF10047 and PRE084, altered cell size. […] Two-tailed t-tests were performed to determine statistical significance. For IPAG treatment compared to control (DMSO) and Sigma1 agonists (SKF and PRE084), P=0.0002 at d1 and P<0.0001 at d2. For FIGS. 31B-31E, the mean FSC-H was determined for each cell cycle population (i.e., G1, S, G2/M), and data is shown for G1 phase cells. S and G2/M phase cells responded similarly (data not shown).

[3] = tested on: MCF-7, T47D, DU145, PC3, HepG2 and Panc1 cells; assay: LC3BII immunoblot in a range of tumor cell lines; conditions: 10 μM, 24 hours
Experimental: FIG. 36, comprising FIGS. 36A-36C, illustrates Sigma1 antagonist associated autophagy. FIG. 36A, comprises representative images of translocation of GFP-tagged LC3 (LC3-GFP) into autophagosomes in MDA-MB-468 (MDA468) breast adenocarcinoma cells. Only antagonist-treated MDA-MB-468 cells presented LC3-GFP translocation to autophagosomes: […]. […] The images are representative of at least 80 fields for each treatment condition. FIG. 36B is an image of an immunoblot illustrating the finding that formation of GFP-LC3II the formation of GFP-LC3 positive punctae, an indicator of autophagosome formation. Protein extracts from MDA-MB-468 cells stably transfected with and expressing GFP-LC3, treated for 24 hours with 10 μM of the indicated Sigma1 ligand. FIG. 36C comprises images of immunoblots illustrating that increased levels of the microtubule associated protein light chain 3BII isoform (LC3BII) is another broadly used indicator of activated autophagy. […] Legend: MCF-7 (breast adenocarcinoma), T47D (breast adenocarcinoma), DU145 (prostate adenocarcinoma), PC3 (prostate adenocarcinoma), HepG2 (hepatocellular carcinoma), and Panc1 (pancreatic adenocarcinoma).

MDA-MB-468 cells = assay: Cell size by flow cytometry (mean FSC-H, G1 phase); conditions: 10 μM, 24 hours
Experimental: FIG. 11 is a graph illustrating decrease in MDAMB468 cell size associated with the Sigma1 antagonist treatment. MDA-MB-468 cells were treated for 24 hours with DMSO (control), 10 μM IPAG (antagonist), or 10 μM PRE084 (agonist). Cell size was quantitated by flow cytometry, using a Becton Dickinson FACS Calibur flow cytometer with Cell Quest software. The mean forward scatter height (FSC-H) of the G1-phase population was determined as a measure of relative cell size. Single cells were gated away from aggregated cells using an FL2-width versus FL-2 area dot plot. Mean FSC-H±S.E. was calculated from at least 4 independent determinations. For each FSC-H determination, FACS analysis was performed on 10,000 single cells. The mean FSC-H of DMSO (control) and PRE084 treated MDA-MB-468 measured 370±6 and 372±7, respectively, whereas the mean FSC-H of IPAG treated MDA-MB-468 cells was 323±4. ** P<0.01 for IPAG compared to DMSO and IPAG compared to PRE084.
FIG. 31A is a differential interference contrast (DIC) image of MDA-MB-468 breast adenocarcinoma cells treated for ˜20 hours with DMSO (drug vehicle control), 10 μM IPAG (antagonist) or 10 μM PRE084 (agonist). A twenty-micron bar is shown in each image. Data are presented as mean±SEM. FIG. 31B is a graph illustrating the finding that IPAG diminished the mean cell size (FSC-H) of MDA-MB-468 breast tumor cells in a time-responsive manner. The mean FSC-H of 370±5 at to decreased to 323±4 after 24 hours of IPAG treatment and to 267±2 after 48 hours of treatment. Two-tailed t-tests were performed to determine statistical significance. For IPAG treatment compared to control (DMSO) and Sigma agonists (SKF and PRE084), P=0.0002 at d1 and P=0.00013 at d2. Data were generated from three to five independent determinations for each time-point. […] T-47D were treated for 24 h with 1 and 10 μM IPAG, and mean FSC-H was measured. […] For FIGS. 31B-31E, the mean FSC-H was determined for each cell cycle population (i.e., G1, S, G2/M), and data is shown for G1 phase cells. […]

PC3 and DU145 PCa cells = assay: UPR induction in prostate cancer cell lines; conditions: preliminary experiments
Description: FIG. 15 is an image of an immunoblot illustrating induction of UPR in a prostate cancer cell line. […] P-IRE1α indicates phosphorylated IRE1α. Similar results were obtained with DU145 prostate cancer cells.
This might be due to an accumulation of ubiquitylated proteins or due to an increase in ubiquitin ligase activity. Progression of the ER stress response could be monitored by a set of markers, many of which have been directly linked to the UPR. The most extensively investigated sensors that initiate the UPR are IRE1α, PERK, and ATF6, which transduce signals to a cascade of effectors. Many of these UPR 4 effectors function as transcription factors that induce the synthesis of ER chaperones, such as GRP78/BiP and GRP94, involved in maintaining protein homeostasis.

[4] = tested on: MDA-MB-468 breast adenocarcinoma cells; assay: LC3 lipidation (LC3II) immunoblot; conditions: 10 μM, 24 hours
Experimental: Cells were lysed and proteins extracted in a modified RIPA buffer (25 mM Tris-HCl pH 7.6, 150 mM NaCl, 1% NP-40, 1% sodium deoxycholate and 0.1% SDS) supplemented with 10% glycerol (volume/volume), complete protease inhibitor cocktail (Roche), and Halt phosphatase inhibitor cocktail (Pierce). Approximately 10-20 μg of detergent soluble protein were resolved on NOVEX 10-20% polyacrylamide Tris-glycine gels (InVitrogen). Immunoblots were performed in a 20 mM Tris-buffered 137 mM saline solution (pH 7.6) containing 0.1% Tween-20 (polyoxyethylene (20) sorbitan monolaurate) and 5% (weight/volume) blotting grade non-fat dry milk (BioRad). The Lumigen PS-3 enhanced chemiluminescence kit (GE Healthcare) was used to reveal immunoblotted proteins.
Initially, an established immunoblot-based assay to detect microtubule associated protein light chain 3 (LC3) lipidation was used to test for the activation of autophagy. […] Since transient transfections can produce spurious GFP-LC3 aggregates, stable GFP-LC3 transfected populations of MDA-MB-468 (GFP-LC3) were generated. These cells were treated for 24 hours with increasing concentrations of Sigma receptor antagonists and agonists, and were compared to basal and DMSO treated controls (FIGS. 4B & 4C).

[5] = tested on: PC3 prostate cancer cells; assay: LC3BII immunoblot, prostate cancer cells; conditions: 10 μM, 24 hours
Experimental: FIG. 16, comprising FIGS. 16A-16B, illustrates Sigma antagonist associated autophagy. FIG. 16A illustrates representative images of the translocation of GFP-tagged LC3 (LC3-GFP) into autophagosomes in a control (DMSO) group and a haloperidol-treated group (10 μM, antagonist). FIG. 16B is an image of a gel illustrating increased levels of the microtubule-associated protein light chain 3BII isoform (CL3BII), which is a broadly used indicator of activated autophagy.
Sigma antagonist-induced ER stress led to the activation of autophagy in several tumor cell lines, including PC3 prostate cancer cells (FIG. 16). In preliminary experiments, an immunoblot assay was performed to detect the formation of the lipid-conjugated form of microtubule associated protein light chain 3 (LC3II), a widely used marker of autophagosome formation (FIG. 16).

PC3 cells = assay: PC3 cell death by trypan blue exclusion; conditions: 5 μM
Experimental: FIG. 1, comprising FIGS. 1A-1B, illustrates prostate adenocarcinoma cell death induced by Sigma1 antagonists. […] Quantitated cell death was presented as the percentage of trypan blue positive cells per drug treated population. Salient cell death occurred following ˜24-48 hours of treatment with the Sigma antagonist.
Cell death was evaluated by trypan blue exclusion assay, as well as cleaved caspase 3 (Asp 175) and cleaved PARP (Asp 214) immunoblot. Trypan blue exclusion and propidium iodide staining were used to quantify general cell death and the presence of apoptotic cell death was confirmed by immunoblot. The percentage of dead cells in a given population was determined by quantifying the number of trypan blue positive (dead) cells and dividing by the total number of trypan blue positive and negative cells.

[6] = tested on: PC3 prostate adenocarcinoma cells; assay: Ubiquitin (P4D1) immunoblot, prostate adenocarcinoma cells; conditions: 10 μM
[7] = tested on: MCF-7, T47D and MDA-MB-468 cells; assay: Cell proliferation by Alamar blue reduction, breast adenocarcinoma cultures; conditions: after 4 days of treatment, six drug concentrations
Description: In vitro cell proliferation was quantitated by Alamar blue reduction. The anti-proliferative effects of six drug concentrations of the indicated drugs were quantitated after 4 days of treatment.

O=C(OCCN1CCOCC1)C1(c2ccccc2)CCCCC1 [PRE-084, 2-morpholin-4-ylethyl 1-phenylcyclohexane-1-carboxylate]
GFP-LC3 punctae per cell ([1]; drug concentrations up to 100 μM, 24 hours): no more than 6±2 punctae per cell | mean FSC-H (relative cell size) [2]: did not alter cell size | LC3BII levels [3]: did not significantly alter basal autophagy | mean FSC-H (relative cell size) (MDA-MB-468 cells): 372±7

O=C(CCCN1CCC(O)(c2ccc(Cl)cc2)CC1)c1ccc(F)cc1 [haloperidol, 4-[4-(4-chlorophenyl)-4-hydroxy-1-piperidyl]-1-(4-fluorophenyl)-butan-1-one]
IRE1α and BiP levels (PC3 and DU145 PCa cells): salient induction of IRE1α and BiP levels | conversion of LC3 to LC3II (autophagosome formation) [4]: converted LC3 to LC3II | mean number of punctae per cell ([1]; 24 hours, knockdown of Beclin1): 17±1 punctae per cell | mean number of punctae per cell ([1]; 24 hours, without Beclin1 knockdown): 36±4 punctae per cell | concentration at which precipitous cell death occurred ([1]; following 24 hours of treatment): 40 µM | LC3BII levels [5]: salient induction of LC3BII levels | treatment time after which salient cell death occurred (PC3 cells): 24 to 48 h | level of ubiquitinated proteins [6]: increased level of ubiquinated proteins | inhibition of cell proliferation [7]: also inhibited cell proliferation
